Assay results from patent US9388126B2, “Sigma receptor ligands and methods of modulating cellular protein homeostasis using same” (Drexel University, priority 2012, dated 2016).

Assays:
Format in all cases: cell-based, human
[1] = system: MDA-MB-468 (GFP-LC3) cells; assay: GFP-LC3 punctae (autophagosome formation) microscopy assay; settings: for mean number of punctae per cell: 10 μM
Experimental: The human GFP-LC3 expression plasmid, pEGFP-LC3 (a gift from Drs. Grazia Ambrosini and Gary K. Schwartz, MSKCC), was stably transfected into MDA-MB-468 and selected with 0.5 mg/ml G418 sulfate. Stable populations were generated and compared to parental MDA-MB-468 for Sigma1 expression and autophagic and growth inhibitory response to Sigma ligands. GFP-LC3 translocation (punctae formation) was assessed by microscopy in MDA-MB-468 (GFP-LC3) stable cell populations. For microscopy-based experiments, cells were seeded onto Lab-Tek II glass chamber slides (Nalge Nunc International). […] Images of GFP-LC3 punctae were acquired with a Zeiss Axioplan 2 Imaging widefield microscope using Axiovision LE software. Punctae were counted using the spot quantitation program in the Fluoro-Chem software package (Alpha Innotech) and confirmed in parallel by manual counting. Autophagosome formation in MDAMB-468 (GFP-LC3) cells was quantitated as the mean number of GFP-LC3 punctae per GFP positive cell.
Initially, an established immunoblot-based assay to detect microtubule associated protein light chain 3 (LC3) lipidation was used to test for the activation of autophagy. […] Since transient transfections can produce spurious GFP-LC3 aggregates, stable GFP-LC3 transfected populations of MDA-MB-468 (GFP-LC3) were generated. […]

MDA-MB-468 cells = assay: Cell size by flow cytometry (mean FSC-H, G1 phase); settings: 10 μM, 24 hours
Experimental: FIG. 11 is a graph illustrating decrease in MDAMB468 cell size associated with the Sigma1 antagonist treatment. MDA-MB-468 cells were treated for 24 hours with DMSO (control), 10 μM IPAG (antagonist), or 10 μM PRE084 (agonist). Cell size was quantitated by flow cytometry, using a Becton Dickinson FACS Calibur flow cytometer with Cell Quest software. The mean forward scatter height (FSC-H) of the G1-phase population was determined as a measure of relative cell size. Single cells were gated away from aggregated cells using an FL2-width versus FL-2 area dot plot. Mean FSC-H±S.E. was calculated from at least 4 independent determinations. For each FSC-H determination, FACS analysis was performed on 10,000 single cells. The mean FSC-H of DMSO (control) and PRE084 treated MDA-MB-468 measured 370±6 and 372±7, respectively, whereas the mean FSC-H of IPAG treated MDA-MB-468 cells was 323±4. ** P<0.01 for IPAG compared to DMSO and IPAG compared to PRE084.
FIG. 31A is a differential interference contrast (DIC) image of MDA-MB-468 breast adenocarcinoma cells treated for ˜20 hours with DMSO (drug vehicle control), 10 μM IPAG (antagonist) or 10 μM PRE084 (agonist). A twenty-micron bar is shown in each image. Data are presented as mean±SEM. FIG. 31B is a graph illustrating the finding that IPAG diminished the mean cell size (FSC-H) of MDA-MB-468 breast tumor cells in a time-responsive manner. The mean FSC-H of 370±5 at to decreased to 323±4 after 24 hours of IPAG treatment and to 267±2 after 48 hours of treatment. Two-tailed t-tests were performed to determine statistical significance. For IPAG treatment compared to control (DMSO) and Sigma agonists (SKF and PRE084), P=0.0002 at d1 and P=0.00013 at d2. Data were generated from three to five independent determinations for each time-point. […] T-47D were treated for 24 h with 1 and 10 μM IPAG, and mean FSC-H was measured. […] For FIGS. 31B-31E, the mean FSC-H was determined for each cell cycle population (i.e., G1, S, G2/M), and data is shown for G1 phase cells. […]

[2] = system: T-47D breast adenocarcinoma cells; assay: Cell size by flow cytometry (mean FSC-H, G1 phase); settings: 10 μM, 24 hours; control 412±5
Experimental: FIG. 31A is a differential interference contrast (DIC) image of MDA-MB-468 breast adenocarcinoma cells treated for ˜20 hours with DMSO (drug vehicle control), 10 μM IPAG (antagonist) or 10 μM PRE084 (agonist). A twenty-micron bar is shown in each image. Data are presented as mean±SEM. FIG. 31B is a graph illustrating the finding that IPAG diminished the mean cell size (FSC-H) of MDA-MB-468 breast tumor cells in a time-responsive manner. The mean FSC-H of 370±5 at to decreased to 323±4 after 24 hours of IPAG treatment and to 267±2 after 48 hours of treatment. Two-tailed t-tests were performed to determine statistical significance. For IPAG treatment compared to control (DMSO) and Sigma agonists (SKF and PRE084), P=0.0002 at d1 and P=0.00013 at d2. Data were generated from three to five independent determinations for each time-point. Flow cytometry was used to measure mean cell size (mean FSC-H) of T-47D breast adenocarcinoma cells. FIG. 31C is a bar graph illustrating T-47D cells treated for 24 hours with 10 μM indicated Sigma ligand. IPAG and BD 1047 (Sigma1 antagonists) diminished cell size from a mean FSC-H of 412±5 for control (DMSO) cells versus 341±7 and 381±8 for IPAG and BD1047 treated cells, respectively. […] Data represent 5 independent determinations (*P<0.05, ***P<0.001). FIG. 31D is a bar graph illustrating how IPAG (antagonist) decreases cell size in a dose responsive manner. T-47D were treated for 24 h with 1 and 10 μM IPAG, and mean FSC-H was measured. FIG. 31E is a graph illustrating that T47D cell size decreases over time. T-47D cells were treated for a total of 48 hours with 10 μM of the indicated Sigma ligands. […] Neither Sigma1 agonist, (+)-SKF10047 and PRE084, altered cell size. […] Two-tailed t-tests were performed to determine statistical significance. For IPAG treatment compared to control (DMSO) and Sigma1 agonists (SKF and PRE084), P=0.0002 at d1 and P<0.0001 at d2. For FIGS. 31B-31E, the mean FSC-H was determined for each cell cycle population (i.e., G1, S, G2/M), and data is shown for G1 phase cells. S and G2/M phase cells responded similarly (data not shown).

[3] = system: MCF-7, T47D, DU145, PC3, HepG2 and Panc1 cells; assay: LC3BII immunoblot in a range of tumor cell lines; settings: 10 μM, 24 hours
Experimental: FIG. 36, comprising FIGS. 36A-36C, illustrates Sigma1 antagonist associated autophagy. FIG. 36A, comprises representative images of translocation of GFP-tagged LC3 (LC3-GFP) into autophagosomes in MDA-MB-468 (MDA468) breast adenocarcinoma cells. Only antagonist-treated MDA-MB-468 cells presented LC3-GFP translocation to autophagosomes: […]. […] The images are representative of at least 80 fields for each treatment condition. FIG. 36B is an image of an immunoblot illustrating the finding that formation of GFP-LC3II the formation of GFP-LC3 positive punctae, an indicator of autophagosome formation. Protein extracts from MDA-MB-468 cells stably transfected with and expressing GFP-LC3, treated for 24 hours with 10 μM of the indicated Sigma1 ligand. FIG. 36C comprises images of immunoblots illustrating that increased levels of the microtubule associated protein light chain 3BII isoform (LC3BII) is another broadly used indicator of activated autophagy. […] Legend: MCF-7 (breast adenocarcinoma), T47D (breast adenocarcinoma), DU145 (prostate adenocarcinoma), PC3 (prostate adenocarcinoma), HepG2 (hepatocellular carcinoma), and Panc1 (pancreatic adenocarcinoma).

[4] = system: MDA-MB-468 breast adenocarcinoma cells; assay: LC3 lipidation (LC3II) immunoblot; settings: 10 μM, 24 hours
Experimental: Cells were lysed and proteins extracted in a modified RIPA buffer (25 mM Tris-HCl pH 7.6, 150 mM NaCl, 1% NP-40, 1% sodium deoxycholate and 0.1% SDS) supplemented with 10% glycerol (volume/volume), complete protease inhibitor cocktail (Roche), and Halt phosphatase inhibitor cocktail (Pierce). Approximately 10-20 μg of detergent soluble protein were resolved on NOVEX 10-20% polyacrylamide Tris-glycine gels (InVitrogen). Immunoblots were performed in a 20 mM Tris-buffered 137 mM saline solution (pH 7.6) containing 0.1% Tween-20 (polyoxyethylene (20) sorbitan monolaurate) and 5% (weight/volume) blotting grade non-fat dry milk (BioRad). The Lumigen PS-3 enhanced chemiluminescence kit (GE Healthcare) was used to reveal immunoblotted proteins.
Initially, an established immunoblot-based assay to detect microtubule associated protein light chain 3 (LC3) lipidation was used to test for the activation of autophagy. […] Since transient transfections can produce spurious GFP-LC3 aggregates, stable GFP-LC3 transfected populations of MDA-MB-468 (GFP-LC3) were generated. These cells were treated for 24 hours with increasing concentrations of Sigma receptor antagonists and agonists, and were compared to basal and DMSO treated controls (FIGS. 4B & 4C).

[5] = system: MCF-7, T47D and MDA-MB-468 cells; assay: Cell proliferation by Alamar blue reduction, breast adenocarcinoma cultures; settings: after 4 days of treatment, six drug concentrations
Excerpt: In vitro cell proliferation was quantitated by Alamar blue reduction. The anti-proliferative effects of six drug concentrations of the indicated drugs were quantitated after 4 days of treatment.

PC3 cells = assay: PC3 cell death by trypan blue exclusion; settings: 5 μM
Experimental: FIG. 1, comprising FIGS. 1A-1B, illustrates prostate adenocarcinoma cell death induced by Sigma1 antagonists. […] Quantitated cell death was presented as the percentage of trypan blue positive cells per drug treated population. Salient cell death occurred following ˜24-48 hours of treatment with the Sigma antagonist.
Cell death was evaluated by trypan blue exclusion assay, as well as cleaved caspase 3 (Asp 175) and cleaved PARP (Asp 214) immunoblot. Trypan blue exclusion and propidium iodide staining were used to quantify general cell death and the presence of apoptotic cell death was confirmed by immunoblot. The percentage of dead cells in a given population was determined by quantifying the number of trypan blue positive (dead) cells and dividing by the total number of trypan blue positive and negative cells.

[6] = system: PC3 prostate cancer cells; assay: LC3BII immunoblot, prostate cancer cells; settings: 10 μM, 24 hours
Experimental: FIG. 16, comprising FIGS. 16A-16B, illustrates Sigma antagonist associated autophagy. FIG. 16A illustrates representative images of the translocation of GFP-tagged LC3 (LC3-GFP) into autophagosomes in a control (DMSO) group and a haloperidol-treated group (10 μM, antagonist). FIG. 16B is an image of a gel illustrating increased levels of the microtubule-associated protein light chain 3BII isoform (CL3BII), which is a broadly used indicator of activated autophagy.
Sigma antagonist-induced ER stress led to the activation of autophagy in several tumor cell lines, including PC3 prostate cancer cells (FIG. 16). In preliminary experiments, an immunoblot assay was performed to detect the formation of the lipid-conjugated form of microtubule associated protein light chain 3 (LC3II), a widely used marker of autophagosome formation (FIG. 16).

PC3 and DU145 PCa cells = assay: UPR induction in prostate cancer cell lines; settings: preliminary experiments
Excerpt: FIG. 15 is an image of an immunoblot illustrating induction of UPR in a prostate cancer cell line. […] P-IRE1α indicates phosphorylated IRE1α. Similar results were obtained with DU145 prostate cancer cells.
This might be due to an accumulation of ubiquitylated proteins or due to an increase in ubiquitin ligase activity. Progression of the ER stress response could be monitored by a set of markers, many of which have been directly linked to the UPR. The most extensively investigated sensors that initiate the UPR are IRE1α, PERK, and ATF6, which transduce signals to a cascade of effectors. Many of these UPR 4 effectors function as transcription factors that induce the synthesis of ER chaperones, such as GRP78/BiP and GRP94, involved in maintaining protein homeostasis.

[7] = system: PC3 prostate adenocarcinoma cells; assay: Ubiquitin (P4D1) immunoblot, prostate adenocarcinoma cells; settings: 10 μM

SMILES	GFP-LC3 punctae per cell ([1]; drug concentrations up to 100 μM, 24 hours)	mean FSC-H (relative cell size) (MDA-MB-468 cells)	mean FSC-H (relative cell size) [2]	LC3BII levels [3]	mean number of punctae per cell ([1]; 24 hours, knockdown of Beclin1) [punctae per cell]	mean number of punctae per cell ([1]; 24 hours, without Beclin1 knockdown) [punctae per cell]	concentration at which precipitous cell death occurred ([1]; following 24 hours of treatment) [µM]	conversion of LC3 to LC3II (autophagosome formation) [4]	inhibition of cell proliferation [5]	treatment time after which salient cell death occurred (PC3 cells) [h]	LC3BII levels [6]	IRE1α and BiP levels (PC3 and DU145 PCa cells)	level of ubiquitinated proteins [7]
O=C(OCCN1CCOCC1)C1(c2ccccc2)CCCCC1 [PRE-084, 2-morpholin-4-ylethyl 1-phenylcyclohexane-1-carboxylate]	no more than 6±2 punctae per cell	372±7	did not alter cell size	did not significantly alter basal autophagy	–	–	–	–	–	–	–	–	–
O=C(CCCN1CCC(O)(c2ccc(Cl)cc2)CC1)c1ccc(F)cc1 [haloperidol, 4-[4-(4-chlorophenyl)-4-hydroxy-1-piperidyl]-1-(4-fluorophenyl)-butan-1-one]	–	–	–	–	17±1	36±4	40	converted LC3 to LC3II	also inhibited cell proliferation	24 to 48	salient induction of LC3BII levels	salient induction of IRE1α and BiP levels	increased level of ubiquinated proteins
